In ChEMBL document CHEMBL4219190, “Studies on synthesis of novel pyrido[2,3-d]pyrimidine derivatives, evaluation of their antimicrobial activity and molecular docking” (Bioorg Med Chem Lett, 2018):
Converted amounts (≈) assume the structure as drawn. The source made the active and inactive calls. The calls are words filed in the database; no cut-off is given here.

Assays:
Bacillus subtilis [1] = experiment: Bactericidal activity against Bacillus subtilis MTCC 121 incubated for 24 hrs followed by transfer of microbial suspension to Mueller Hinton agar plates and measured after 24 hrs post transfer; assay type: functional; conditions: MTCC 121, 24 h
Bacillus subtilis [2] = experiment: Antibacterial activity against Bacillus subtilis MTCC 121 after 24 hrs by well diffusion method; assay type: functional; conditions: MTCC 121, 24 h
Staphylococcus aureus [3] = experiment: Antibacterial activity against Staphylococcus aureus MTCC 96 after 24 hrs by well diffusion method; assay type: functional; conditions: MTCC 96, 24 h
Staphylococcus aureus [4] = experiment: Antibacterial activity against Staphylococcus aureus MLS16 MTCC 2940 after 24 hrs by well diffusion method; assay type: functional; conditions: MLS16 MTCC 2940, 24 h
Micrococcus luteus [5] = experiment: Antibacterial activity against Micrococcus luteus MTCC 2470 after 24 hrs by well diffusion method; assay type: functional; conditions: MTCC 2470, 24 h
Raoultella planticola [6] = experiment: Antibacterial activity against Klebsiella planticola MTCC 530 after 24 hrs by well diffusion method; assay type: functional; conditions: MTCC 530, 24 h
Escherichia coli [7] = experiment: Antibacterial activity against Escherichia coli MTCC 739 after 24 hrs by well diffusion method; assay type: functional; conditions: MTCC 739, 24 h
Pseudomonas aeruginosa [8] = experiment: Antibacterial activity against Pseudomonas aeruginosa MTCC 2453 after 24 hrs by well diffusion method; assay type: functional; conditions: MTCC 2453, 24 h
Staphylococcus aureus [9] = experiment: Bactericidal activity against Staphylococcus aureus MTCC 96 incubated for 24 hrs followed by transfer of microbial suspension to Mueller Hinton agar plates and measured after 24 hrs post transfer; assay type: functional; conditions: MTCC 96, 24 h
Staphylococcus aureus [10] = experiment: Bactericidal activity against Staphylococcus aureus MLS16 MTCC 2940 incubated for 24 hrs followed by transfer of microbial suspension to Mueller Hinton agar plates and measured after 24 hrs post transfer; assay type: functional; conditions: MLS16 MTCC 2940, 24 h
Micrococcus luteus [11] = experiment: Bactericidal activity against Micrococcus luteus MTCC 2470 incubated for 24 hrs followed by transfer of microbial suspension to Mueller Hinton agar plates and measured after 24 hrs post transfer; assay type: functional; conditions: MTCC 2470, 24 h
Raoultella planticola [12] = experiment: Bactericidal activity against Klebsiella planticola MTCC 530 incubated for 24 hrs followed by transfer of microbial suspension to Mueller Hinton agar plates and measured after 24 hrs post transfer; assay type: functional; conditions: MTCC 530, 24 h
Escherichia coli [13] = experiment: Bactericidal activity against Escherichia coli MTCC 739 incubated for 24 hrs followed by transfer of microbial suspension to Mueller Hinton agar plates and measured after 24 hrs post transfer; assay type: functional; conditions: MTCC 739, 24 h
Pseudomonas aeruginosa [14] = experiment: Bactericidal activity against Pseudomonas aeruginosa MTCC 2453 incubated for 24 hrs followed by transfer of microbial suspension to Mueller Hinton agar plates and measured after 24 hrs post transfer; assay type: functional; conditions: MTCC 2453, 24 h
Candida albicans [15] = experiment: Antifungal activity against Candida albicans MTCC 183 after 24 hrs by well diffusion method; assay type: functional; conditions: MTCC 183, 24 h
Candida albicans [16] = experiment: Antifungal activity against Candida albicans MTCC 227 after 24 hrs by well diffusion method; assay type: functional; conditions: MTCC 227, 24 h
Candida albicans [17] = experiment: Antifungal activity against Candida albicans MTCC 854 after 24 hrs by well diffusion method; assay type: functional; conditions: MTCC 854, 24 h
Candida albicans [18] = experiment: Antifungal activity against Candida albicans MTCC 1637 after 24 hrs by well diffusion method; assay type: functional; conditions: MTCC 1637, 24 h
Candida albicans [19] = experiment: Antifungal activity against Candida albicans MTCC 3018 after 24 hrs by well diffusion method; assay type: functional; conditions: MTCC 3018, 24 h
Candida albicans [20] = experiment: Antifungal activity against Candida albicans MTCC 3017 after 24 hrs by well diffusion method; assay type: functional; conditions: MTCC 3017, 24 h
Candida albicans [21] = experiment: Antifungal activity against Candida albicans MTCC 3958 after 24 hrs by well diffusion method; assay type: functional; conditions: MTCC 3958, 24 h
Candida albicans [22] = experiment: Antifungal activity against Candida albicans MTCC 4748 after 24 hrs by well diffusion method; assay type: functional; conditions: MTCC 4748, 24 h
Candida albicans [23] = experiment: Antifungal activity against Candida albicans MTCC 7315 after 24 hrs by well diffusion method; assay type: functional; conditions: MTCC 7315, 24 h
Candida parapsilosis [24] = experiment: Antifungal activity against Candida parapsilosis MTCC 1744 after 24 hrs by well diffusion method; assay type: functional; conditions: MTCC 1744, 24 h
[Candida] aaseri [25] = Antifungal activity against Candida aaseri MTCC 1962 after 24 hrs by well diffusion method; assay type: functional; conditions: Yamadazyma aaseri, MTCC 1962, 24 h
Nakaseomyces glabratus [26] = experiment: Antifungal activity against Candida glabrata MTCC 3019 after 24 hrs by well diffusion method; assay type: functional; conditions: MTCC 3019, 24 h
Pichia kudriavzevii [27] = experiment: Antifungal activity against Candida krusei MTCC 3020 after 24 hrs by well diffusion method; assay type: functional
Pichia sporocuriosa [28] = experiment: Antifungal activity against Issatchenkia hanoiensis MTCC 4755 after 24 hrs by well diffusion method; assay type: functional; conditions: MTCC 4755, 24 h
Candida albicans [29] = experiment: Fungicidal activity against Candida albicans MTCC 183 incubated for 24 hrs followed by transfer of microbial suspension to Sabouraud dextrose agar plates and measured after 24 hrs post transfer; assay type: functional; conditions: MTCC 183, 24 h
Candida albicans [30] = experiment: Fungicidal activity against Candida albicans MTCC 227 incubated for 24 hrs followed by transfer of microbial suspension to Sabouraud dextrose agar plates and measured after 24 hrs post transfer; assay type: functional; conditions: MTCC 227, 24 h
Candida albicans [31] = experiment: Fungicidal activity against Candida albicans MTCC 854 incubated for 24 hrs followed by transfer of microbial suspension to Sabouraud dextrose agar plates and measured after 24 hrs post transfer; assay type: functional; conditions: MTCC 854, 24 h
Candida albicans [32] = experiment: Fungicidal activity against Candida albicans MTCC 1637 incubated for 24 hrs followed by transfer of microbial suspension to Sabouraud dextrose agar plates and measured after 24 hrs post transfer; assay type: functional; conditions: MTCC 1637, 24 h
Candida albicans [33] = experiment: Fungicidal activity against Candida albicans MTCC 3017 incubated for 24 hrs followed by transfer of microbial suspension to Sabouraud dextrose agar plates and measured after 24 hrs post transfer; assay type: functional; conditions: MTCC 3017, 24 h
Candida albicans [34] = experiment: Fungicidal activity against Candida albicans MTCC 3018 incubated for 24 hrs followed by transfer of microbial suspension to Sabouraud dextrose agar plates and measured after 24 hrs post transfer; assay type: functional; conditions: MTCC 3018, 24 h
Candida albicans [35] = experiment: Fungicidal activity against Candida albicans MTCC 3958 incubated for 24 hrs followed by transfer of microbial suspension to Sabouraud dextrose agar plates and measured after 24 hrs post transfer; assay type: functional; conditions: MTCC 3958, 24 h
Candida albicans [36] = experiment: Fungicidal activity against Candida albicans MTCC 4748 incubated for 24 hrs followed by transfer of microbial suspension to Sabouraud dextrose agar plates and measured after 24 hrs post transfer; assay type: functional; conditions: MTCC 4748, 24 h
Candida albicans [37] = experiment: Fungicidal activity against Candida albicans MTCC 7315 incubated for 24 hrs followed by transfer of microbial suspension to Sabouraud dextrose agar plates and measured after 24 hrs post transfer; assay type: functional; conditions: MTCC 7315, 24 h
Candida parapsilosis [38] = experiment: Fungicidal activity against Candida parapsilosis MTCC 1744 incubated for 24 hrs followed by transfer of microbial suspension to Sabouraud dextrose agar plates and measured after 24 hrs post transfer; assay type: functional; conditions: Lodderomyces parapsilosis, MTCC 1744, 24 h
[Candida] aaseri [39] = Fungicidal activity against Candida aaseri MTCC 1962 incubated for 24 hrs followed by transfer of microbial suspension to Sabouraud dextrose agar plates and measured after 24 hrs post transfer; assay type: functional; conditions: Yamadazyma aaseri, MTCC 1962, 24 h
Nakaseomyces glabratus [40] = experiment: Fungicidal activity against Candida glabrata MTCC 3019 incubated for 24 hrs followed by transfer of microbial suspension to Sabouraud dextrose agar plates and measured after 24 hrs post transfer; assay type: functional; conditions: MTCC 3019, 24 h
Pichia kudriavzevii [41] = experiment: Fungicidal activity against Candida krusei MTCC 3020 incubated for 24 hrs followed by transfer of microbial suspension to Sabouraud dextrose agar plates and measured after 24 hrs post transfer; assay type: functional
Pichia sporocuriosa [42] = experiment: Fungicidal activity against Issatchenkia hanoiensis MTCC 4755 incubated for 24 hrs followed by transfer of microbial suspension to Sabouraud dextrose agar plates and measured after 24 hrs post transfer; assay type: functional; conditions: MTCC 4755, 24 h
Bacillus subtilis [43] = experiment: Antibiofilm activity against Bacillus subtilis MTCC 121 after 24 hrs by crystal violet staining-based assay; assay type: functional, organism-based; conditions: Bacillus subtilis, MTCC 121, 24 h; read-out: IC50
Staphylococcus aureus [44] = experiment: Antibiofilm activity against Staphylococcus aureus MTCC 96 after 24 hrs by crystal violet staining-based assay; assay type: functional, organism-based; conditions: Staphylococcus aureus, MTCC 96, 24 h; read-out: IC50
Staphylococcus aureus [45] = experiment: Antibiofilm activity against Staphylococcus aureus MLS16 MTCC 2940 after 24 hrs by crystal violet staining-based assay; assay type: functional, organism-based; conditions: Staphylococcus aureus, MLS16 MTCC 2940, 24 h; read-out: IC50
Pseudomonas aeruginosa [46] = experiment: Antibiofilm activity against Pseudomonas aeruginosa MTCC 2453 after 24 hrs by crystal violet staining-based assay; assay type: functional, organism-based; conditions: Pseudomonas aeruginosa, MTCC 2453, 24 h; read-out: IC50
Raoultella planticola [47] = experiment: Antibiofilm activity against Klebsiella planticola MTCC 530 after 24 hrs by crystal violet staining-based assay; assay type: functional, organism-based; conditions: Klebsiella planticola, MTCC 530, 24 h; read-out: IC50

With COc1ccc(-c2nc(C(=O)N3CCN(C)CC3)nc3nc(-c4ccccc4)cc(C(F)(F)F)c23)cc1 the MBC (Bacillus subtilis [1]) was 15.6 µg/mL (≈ 30.7 µM), the MIC (Bacillus subtilis [2]) was 7.8 µg/mL (≈ 15.4 µM) and the MIC (Staphylococcus aureus [3]) was 7.8 µg/mL (≈ 15.4 µM). For the same compound, the MIC (Staphylococcus aureus [4]) was 15.6 µg/mL (≈ 30.7 µM), the MIC (Micrococcus luteus [5]) was 15.6 µg/mL (≈ 30.7 µM) and the MIC (Raoultella planticola [6]) was 15.6 µg/mL (≈ 30.7 µM). The MIC (Escherichia coli [7]) was 15.6 µg/mL (≈ 30.7 µM), the MIC (Pseudomonas aeruginosa [8]) was 7.8 µg/mL (≈ 15.4 µM) and the MBC (Staphylococcus aureus [9]) was 15.6 µg/mL (≈ 30.7 µM). The MBC (Staphylococcus aureus [10]) was 15.6 µg/mL (≈ 30.7 µM), the MBC (Micrococcus luteus [11]) was 31.2 µg/mL (≈ 61.5 µM) and the MBC (Raoultella planticola [12]) was 31.2 µg/mL (≈ 61.5 µM). For the same compound, the MBC (Escherichia coli [13]) was 31.2 µg/mL (≈ 61.5 µM), the MBC (Pseudomonas aeruginosa [14]) was 15.6 µg/mL (≈ 30.7 µM) and the MIC (Candida albicans [15]) was 3.9 µg/mL (≈ 7.68 µM). It also gave an MIC (Candida albicans [16]) of 31.2 µg/mL (≈ 61.5 µM), an MIC (Candida albicans [17]) of 15.6 µg/mL (≈ 30.7 µM) and an MIC (Candida albicans [18]) of 15.6 µg/mL (≈ 30.7 µM). It also gave an MIC (Candida albicans [19]) of 31.2 µg/mL (≈ 61.5 µM), an MIC (Candida albicans [20]) of 3.9 µg/mL (≈ 7.68 µM) and an MIC (Candida albicans [21]) of 62.5 µg/mL (≈ 123 µM). It also gave an MIC (Candida albicans [22]) of 62.5 µg/mL (≈ 123 µM), an MIC (Candida albicans [23]) of 31.2 µg/mL (≈ 61.5 µM) and an MIC (Candida parapsilosis [24]) of 15.6 µg/mL (≈ 30.7 µM). For the same compound, the MIC ([Candida] aaseri [25]) was 15.6 µg/mL (≈ 30.7 µM), the MIC (Nakaseomyces glabratus [26]) was 7.8 µg/mL (≈ 15.4 µM) and the MIC (Pichia kudriavzevii [27]) was “inactive”. For the same compound, the MIC (Pichia sporocuriosa [28]) was 7.8 µg/mL (≈ 15.4 µM), the MFC (Candida albicans [29]) was 7.8 µg/mL (≈ 15.4 µM) and the MFC (Candida albicans [30]) was 31.2 µg/mL (≈ 61.5 µM). The MFC (Candida albicans [31]) was 31.2 µg/mL (≈ 61.5 µM), the MFC (Candida albicans [32]) was 31.2 µg/mL (≈ 61.5 µM) and the MFC (Candida albicans [33]) was 7.8 µg/mL (≈ 15.4 µM). For the same compound, the MFC (Candida albicans [34]) was 62.5 µg/mL (≈ 123 µM), the MFC (Candida albicans [35]) was 62.5 µg/mL (≈ 123 µM) and the MFC (Candida albicans [36]) was 62.5 µg/mL (≈ 123 µM). It also gave an MFC (Candida albicans [37]) of 62.5 µg/mL (≈ 123 µM), an MFC (Candida parapsilosis [38]) of 31.2 µg/mL (≈ 61.5 µM) and an MFC ([Candida] aaseri [39]) of 31.2 µg/mL (≈ 61.5 µM). The MFC (Nakaseomyces glabratus [40]) was 15.6 µg/mL (≈ 30.7 µM), the MFC (Pichia kudriavzevii [41]) was “inactive” and the MFC (Pichia sporocuriosa [42]) was 15.6 µg/mL (≈ 30.7 µM). It also gave an IC50 (Bacillus subtilis [43]) of 2.7 µg/mL (≈ 5.32 µM), an IC50 (Staphylococcus aureus [44]) of 5.4 µg/mL (≈ 10.6 µM) and an IC50 (Staphylococcus aureus [45]) of 10.8 µg/mL (≈ 21.3 µM). It also gave an IC50 (Pseudomonas aeruginosa [46]) of 2.7 µg/mL (≈ 5.32 µM) and an IC50 (Raoultella planticola [47]) of 10.8 µg/mL (≈ 21.3 µM).
